Assay results reported in US20060128715A1, “Oxime derivative hydroxyethylamine aspartyl-protease inhibitors” (priority 2004, published 2006).
Several values for one entry are separate records, joined by “and”; a condition that tells them apart may be missing. Equal entries are not always repeated.

Each molecule was assayed on cathepsin E (catE) versus beta-secretase (BACE) (assay: Selectivity for BACE versus catE (ratio of IC50 values)). Details: multiple values = more than one experiment.
Format: biochemical
Experimental: (§1) Selectivity was calculated as a ratio of inhibition (IC50) values in which the inhibition of beta-secretase was compared to the inhibition of other aspartyl proteases.
Selectivity is reported as the ratio of IC50(catE):IC50(BACE).
With CC(C)(C)c1cccc(C2(NCC(O)C(Cc3cc(F)cc(F)c3)NS(C)(=O)=O)CCc3n[nH]cc3C2)c1 (single isomer, unassigned) [Example 51-18] the “Selectivity IC50(catE)/IC50(BACE)” value was 23.2. CC(C)(C)c1cccc(C2(NCC(O)C(Cc3cc(F)cc(F)c3)NS(C)(=O)=O)CCc3n[nH]cc3C2)c1 (single isomer, unassigned) [Example 51-19] was tested, and the “Selectivity IC50(catE)/IC50(BACE)” value was 5.8. With CON=C1CCC(NCC(O)C(Cc2cc(F)cc(F)c2)NC(C)=O)(c2cccc(C(C)(C)C)c2)CC1 (stereo not drawn) [Example 51-2] the “Selectivity IC50(catE)/IC50(BACE)” value was 9.3 and 10.4. CCON=C1CCC(NCC(O)C(Cc2cc(F)cc(F)c2)NC(C)=O)(c2cccc(C(C)(C)C)c2)CC1 (stereo not drawn) [Example 51-3] was tested, and the “Selectivity IC50(catE)/IC50(BACE)” value was 3.3. With CC(=O)NC(Cc1cc(F)cc(F)c1)C(O)CNC1(c2cccc(C(C)(C)C)c2)CCc2nn(C(C)=O)cc2C1 (stereo not drawn) [Example 51-12] the “Selectivity IC50(catE)/IC50(BACE)” value was 8.4. In the case of C=C1CCC(NCC(O)C(Cc2cc(F)cc(F)c2)NC(C)=O)(c2cccc(C(C)(C)C)c2)CC1 (stereo not drawn) [Example 51-14], the “Selectivity IC50(catE)/IC50(BACE)” value is reported as 1.9. With CC(=O)NC(Cc1cc(F)cc(F)c1)C(O)CNC1(c2cccc(C(C)(C)C)c2)CCC(=CC#N)CC1 (stereo not drawn) [Example 51-17] the “Selectivity IC50(catE)/IC50(BACE)” value was 3.9. For CC(=O)NC(Cc1cc(F)cc(F)c1)C(O)CNC1(c2cccc(-c3ccsc3)c2)CCc2nn(C)cc2C1 (stereo not drawn) [Example 51-20], the “Selectivity IC50(catE)/IC50(BACE)” value was 1.1. Cn1cc2c(n1)CCC(NCC(O)C(Cc1cc(F)cc(F)c1)NS(C)(=O)=O)(c1cccc(C(C)(C)C)c1)C2 (stereo not drawn) [Example 51-21] was tested, and the “Selectivity IC50(catE)/IC50(BACE)” value was 4.8. With CC(=O)NC(Cc1cc(F)cc(F)c1)C(O)CNC1(c2cccc(-n3cccn3)c2)CCc2nn(C)cc2C1 (stereo not drawn) [Example 51-22] the “Selectivity IC50(catE)/IC50(BACE)” value was 1.8. For CC(=O)NC(Cc1cc(F)cc(F)c1)C(O)CNC1(c2cccc(C(C)(C)C)c2)CCc2nn(C)cc2C1 (stereo not drawn) [Example 51-23], the “Selectivity IC50(catE)/IC50(BACE)” value was 1.8.

What follows are molecules tested on cathepsin D (catD) versus beta-secretase (BACE) (assay: Selectivity for BACE versus catD (ratio of IC50 values)). Details: each value is an average of four experimental runs; multiple values = more than one experiment.
Format: biochemical
Experimental: as §1
In the following examples, each value is an average of four experimental runs and multiple values for one compound indicate that more than one experiment was conducted.
With CC(C)(C)c1cccc(C2(NCC(O)C(Cc3cc(F)cc(F)c3)NS(C)(=O)=O)CCc3n[nH]cc3C2)c1 (single isomer, unassigned) [Example 50-15] the “Selectivity IC50(catD)/IC50(BACE)” value was 25.4. For CC(C)(C)c1cccc(C2(NCC(O)C(Cc3cc(F)cc(F)c3)NS(C)(=O)=O)CCc3n[nH]cc3C2)c1 (single isomer, unassigned) [Example 50-16], the “Selectivity IC50(catD)/IC50(BACE)” value was 2.7. In the case of Cn1cc2c(n1)CCC(NCC(O)C(Cc1cc(F)cc(F)c1)NS(C)(=O)=O)(c1cccc(C(C)(C)C)c1)C2 (single isomer, unassigned) [Example 50-18], the “Selectivity IC50(catD)/IC50(BACE)” value is reported as 11.0. For CC(C)(C)c1cccc(C2(NCC(O)C(Cc3cc(F)cc(F)c3)NC(=O)CF)CCc3n[nH]cc3C2)c1 (single isomer, unassigned) [Example 50-26], the “Selectivity IC50(catD)/IC50(BACE)” value was 17.8. In the case of CC(C)(C)c1cccc(C2(NCC(O)C(Cc3cc(F)cc(F)c3)NC(=O)CF)CCc3n[nH]cc3C2)c1 (single isomer, unassigned) [Example 50-27], the “Selectivity IC50(catD)/IC50(BACE)” value is reported as 7.8. For CON=C1CCC(NCC(O)C(Cc2cc(F)cc(F)c2)NC(C)=O)(c2cccc(C(C)(C)C)c2)CC1 (stereo not drawn) [Example 50-2], the “Selectivity IC50(catD)/IC50(BACE)” value was 15.9 and 18.3. With CCON=C1CCC(NCC(O)C(Cc2cc(F)cc(F)c2)NC(C)=O)(c2cccc(C(C)(C)C)c2)CC1 (stereo not drawn) [Example 50-3] the “Selectivity IC50(catD)/IC50(BACE)” value was 1.8. For CC(=O)NC(Cc1cc(F)cc(F)c1)C(O)CNC1(c2cccc(C(C)(C)C)c2)CCC(=NOCCO)CC1 (stereo not drawn) [Example 50-4], the “Selectivity IC50(catD)/IC50(BACE)” value was 2.3 and 2.5. With CC(=O)NC(Cc1cc(F)cc(F)c1)C(O)CNC1(c2cccc(C(C)(C)C)c2)CCc2nn(C(C)=O)cc2C1 (stereo not drawn) [Example 50-12] the “Selectivity IC50(catD)/IC50(BACE)” value was 11.1. For CC(=O)NC(Cc1cc(F)cc(F)c1)C(O)CNC1(c2cccc(C(C)(C)C)c2)CCC(=CC#N)CC1 (stereo not drawn) [Example 50-14], the “Selectivity IC50(catD)/IC50(BACE)” value was 1.9. For CC(=O)NC(Cc1cc(F)cc(F)c1)C(O)CNC1(c2cccc(-c3ccsc3)c2)CCc2nn(C)cc2C1 (stereo not drawn) [Example 50-17], the “Selectivity IC50(catD)/IC50(BACE)” value was 1.1. For CC(=O)NC(Cc1cc(F)cc(F)c1)C(O)CNC1(c2cccc(-c3ccoc3)c2)CCc2nn(C)cc2C1 (stereo not drawn) [Example 50-19], the “Selectivity IC50(catD)/IC50(BACE)” value was 1.8. In the case of CC(=O)NC(Cc1ccccc1)C(O)CNC1(c2cccc(C(C)(C)C)c2)CCc2n[nH]cc2C1 (stereo not drawn) [Example 50-20], the “Selectivity IC50(catD)/IC50(BACE)” value is reported as 19.1. For Cn1cc2c(n1)CCC(NCC(O)C(Cc1cc(F)cc(F)c1)NC(=O)CF)(c1cccc(C(C)(C)C)c1)C2 (stereo not drawn) [Example 50-22], the “Selectivity IC50(catD)/IC50(BACE)” value was 2.0. In the case of CC(=O)NC(Cc1cc(F)cc(F)c1)C(O)CNC1(c2cccs2)CCc2n[nH]cc2C1 (stereo not drawn) [Example 50-23], the “Selectivity IC50(catD)/IC50(BACE)” value is reported as 4.5. With CC(=O)NC(Cc1cc(F)cc(F)c1)C(O)CNC1(c2cc(CC(C)(C)C)cs2)CCc2n[nH]cc2C1 (stereo not drawn) [Example 50-24] the “Selectivity IC50(catD)/IC50(BACE)” value was 5.9 and 7.0. CC(C)(C)c1cccc(C2(NCC(O)C(Cc3cc(F)cc(F)c3)NC(=O)CF)CCc3n[nH]cc3C2)c1 (stereo not drawn) [Example 50-25] was tested, and the “Selectivity IC50(catD)/IC50(BACE)” value was 8.5. CC(=O)NC(Cc1cc(F)cc(F)c1)C(O)CNC1(c2cccc(C(C)(C)C)c2)CCc2nn(C)cc2C1 (stereo not drawn) [Example 50-28] was tested, and the “Selectivity IC50(catD)/IC50(BACE)” value was 2.8. In the case of CC(=O)NC(CC(C)C)C(O)CNC1(c2cccc(C(C)(C)C)c2)CCc2n[nH]cc2C1 (stereo not drawn) [Example 50-29], the “Selectivity IC50(catD)/IC50(BACE)” value is reported as 16.3.
